Laboratory results from PubChem BioAssay (NCI).
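Cultured in 96-well plates, cells were exposed to test compound for 48 hours across five concentrations. The concentration for 50% growth inhibition is given as GI50. TGI: total growth inhibition.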

Columns and labels:
Experiment in all cases: growth of human tumour cells (NCI), 48 h
SK-MEL-2 melanoma = test system: SK-MEL-2 melanoma
NCI/ADR-RES ovarian = test system: NCI/ADR-RES ovarian
SR leukemia = test system: SR leukemia
HCT-15 colon = test system: HCT-15 colon
HL-60(TB) leukemia = test system: HL-60(TB) leukemia
UACC-62 melanoma = test system: UACC-62 melanoma
SNB-75 CNS = test system: SNB-75 CNS
SF-295 CNS = test system: SF-295 CNS
NCI-H522 lung = test system: NCI-H522 lung
HCC-2998 colon = test system: HCC-2998 colon
SN12C renal = test system: SN12C renal
PC-3 prostate = test system: PC-3 prostate
MDA-MB-231 breast = test system: MDA-MB-231 breast
K-562 leukemia = test system: K-562 leukemia
TK-10 renal = test system: TK-10 renal
OVCAR-8 ovarian = test system: OVCAR-8 ovarian
UO-31 renal = test system: UO-31 renal
U251 CNS = test system: U251 CNS
CAKI-1 renal = test system: CAKI-1 renal
MCF7 breast = test system: MCF7 breast
SNB-19 CNS = test system: SNB-19 CNS
HT29 colon = test system: HT29 colon
COLO 205 colon = test system: COLO 205 colon
MDA-MB-435 = test system: MDA-MB-435
T-47D breast = test system: T-47D breast
EKVX NSCLC = test system: EKVX NSCLC
A498 renal = test system: A498 renal
HS 578T breast = test system: HS 578T breast
RPMI-8226 leukemia = test system: RPMI-8226 leukemia
MOLT-4 leukemia = test system: MOLT-4 leukemia
BT-549 breast = test system: BT-549 breast
OVCAR-5 ovarian = test system: OVCAR-5 ovarian
NCI-H460 lung = test system: NCI-H460 lung
A549 NSCLC = test system: A549 NSCLC
KM12 colon = test system: KM12 colon
RXF 393 renal = test system: RXF 393 renal
SK-MEL-28 melanoma = test system: SK-MEL-28 melanoma
NCI-H23 lung = test system: NCI-H23 lung
SW-620 colon = test system: SW-620 colon
LOX IMVI melanoma = test system: LOX IMVI melanoma
OVCAR-4 ovarian = test system: OVCAR-4 ovarian
HOP-62 NSCLC = test system: HOP-62 NSCLC
NCI-H226 lung = test system: NCI-H226 lung
ACHN renal = test system: ACHN renal
UACC-257 melanoma = test system: UACC-257 melanoma
SF-268 CNS = test system: SF-268 CNS
SK-OV-3 ovarian = test system: SK-OV-3 ovarian
SF-539 CNS = test system: SF-539 CNS
SK-MEL-5 melanoma = test system: SK-MEL-5 melanoma
HOP-92 NSCLC = test system: HOP-92 NSCLC
OVCAR-3 ovarian = test system: OVCAR-3 ovarian
IGROV1 ovarian = test system: IGROV1 ovarian
786-0 renal = test system: 786-0 renal
M14 melanoma = test system: M14 melanoma
DU-145 prostate = test system: DU-145 prostate
HCT-116 colon = test system: HCT-116 colon

CCOC(=O)C(=Cc1ccc(-c2ccccc2)cc1)C(=O)OCC
GI50 (SK-MEL-2 melanoma): 3.81 µM
TGI (SK-MEL-2 melanoma): 11.4 µM
GI50 (NCI/ADR-RES ovarian): 3 µM
TGI (NCI/ADR-RES ovarian): 8.77 µM
GI50 (SR leukemia): 3.13 µM
TGI (SR leukemia): 38.3 µM
GI50 (HCT-15 colon): 1.93 µM
TGI (HCT-15 colon): 4.84 µM
GI50 (HL-60(TB) leukemia): 2.1 µM
TGI (HL-60(TB) leukemia): 4.7 µM
GI50 (UACC-62 melanoma): 1.76 µM
TGI (UACC-62 melanoma): 3.69 µM
GI50 (SNB-75 CNS): 3.89 µM
TGI (SNB-75 CNS): 16.3 µM
GI50 (SF-295 CNS): 5.22 µM
TGI (SF-295 CNS): 18.4 µM
GI50 (NCI-H522 lung): 1.68 µM
TGI (NCI-H522 lung): 3.38 µM
GI50 (HCC-2998 colon): 1.89 µM
TGI (HCC-2998 colon): 3.54 µM
GI50 (SN12C renal): 2.02 µM
TGI (SN12C renal): 4.23 µM
GI50 (PC-3 prostate): 2.51 µM
TGI (PC-3 prostate): 6.09 µM
GI50 (MDA-MB-231 breast): 2.98 µM
TGI (MDA-MB-231 breast): 7.2 µM
GI50 (K-562 leukemia): 3.17 µM
TGI (K-562 leukemia): > 100 µM
GI50 (TK-10 renal): 3.91 µM
TGI (TK-10 renal): 13.3 µM
GI50 (OVCAR-8 ovarian): 2.85 µM
TGI (OVCAR-8 ovarian): > 100 µM
GI50 (UO-31 renal): 1.71 µM
TGI (UO-31 renal): 3.29 µM
GI50 (U251 CNS): 1.68 µM
TGI (U251 CNS): 5.67 µM
GI50 (CAKI-1 renal): 3.24 µM
TGI (CAKI-1 renal): 10.8 µM
GI50 (MCF7 breast): 2.69 µM
TGI (MCF7 breast): 13.2 µM
GI50 (SNB-19 CNS): 2.21 µM
TGI (SNB-19 CNS): 5.14 µM
GI50 (HT29 colon): 2.04 µM
TGI (HT29 colon): 3.88 µM
GI50 (COLO 205 colon): 3.45 µM
TGI (COLO 205 colon): 11.1 µM
GI50 (MDA-MB-435): 2.55 µM
TGI (MDA-MB-435): 7.57 µM
GI50 (T-47D breast): 2.02 µM
TGI (T-47D breast): 4.74 µM
GI50 (EKVX NSCLC): 10.3 µM
TGI (EKVX NSCLC): 22.1 µM
GI50 (A498 renal): 3.74 µM
TGI (A498 renal): 12.8 µM
GI50 (HS 578T breast): 4.36 µM
TGI (HS 578T breast): 25.7 µM
GI50 (RPMI-8226 leukemia): 2.43 µM
TGI (RPMI-8226 leukemia): 7.04 µM
GI50 (MOLT-4 leukemia): 2.46 µM
TGI (MOLT-4 leukemia): 6.59 µM
GI50 (BT-549 breast): 2.64 µM
TGI (BT-549 breast): 7.03 µM
GI50 (OVCAR-5 ovarian): 2.67 µM
TGI (OVCAR-5 ovarian): 6.48 µM
GI50 (NCI-H460 lung): 5.04 µM
TGI (NCI-H460 lung): 17.2 µM
GI50 (A549 NSCLC): 3.61 µM
TGI (A549 NSCLC): > 100 µM
GI50 (KM12 colon): 3.37 µM
TGI (KM12 colon): 12.1 µM
GI50 (RXF 393 renal): 1.95 µM
TGI (RXF 393 renal): 3.74 µM
GI50 (SK-MEL-28 melanoma): 1.95 µM
TGI (SK-MEL-28 melanoma): 4.23 µM
GI50 (NCI-H23 lung): 2.22 µM
TGI (NCI-H23 lung): 6.34 µM
GI50 (SW-620 colon): 2.07 µM
TGI (SW-620 colon): 4.28 µM
GI50 (LOX IMVI melanoma): 1.72 µM
TGI (LOX IMVI melanoma): 3.21 µM
GI50 (OVCAR-4 ovarian): 6.3 µM
TGI (OVCAR-4 ovarian): 19.9 µM
GI50 (HOP-62 NSCLC): 3.55 µM
TGI (HOP-62 NSCLC): 11.3 µM
GI50 (NCI-H226 lung): 2.4 µM
TGI (NCI-H226 lung): 5.21 µM
GI50 (ACHN renal): 1.83 µM
TGI (ACHN renal): 3.42 µM
GI50 (UACC-257 melanoma): 3.53 µM
TGI (UACC-257 melanoma): 9.29 µM
GI50 (SF-268 CNS): 3.06 µM
TGI (SF-268 CNS): 11 µM
GI50 (SK-OV-3 ovarian): 11.7 µM
TGI (SK-OV-3 ovarian): 24.8 µM
GI50 (SF-539 CNS): 1.8 µM
TGI (SF-539 CNS): 3.35 µM
GI50 (SK-MEL-5 melanoma): 2.39 µM
TGI (SK-MEL-5 melanoma): 5.75 µM
GI50 (HOP-92 NSCLC): 2.42 µM
TGI (HOP-92 NSCLC): 6.72 µM
GI50 (OVCAR-3 ovarian): 2.86 µM
TGI (OVCAR-3 ovarian): 8.18 µM
GI50 (IGROV1 ovarian): 2.29 µM
TGI (IGROV1 ovarian): 5.61 µM
GI50 (786-0 renal): 2.06 µM
TGI (786-0 renal): 4.16 µM
GI50 (M14 melanoma): 3.14 µM
TGI (M14 melanoma): 11.1 µM
GI50 (DU-145 prostate): 3.12 µM
TGI (DU-145 prostate): 11.1 µM
GI50 (HCT-116 colon): 2.13 µM
TGI (HCT-116 colon): 4.91 µM
